Patent US20190105367A1, “ANTIMICROBIAL 4-OXOQUINOLIZINES” (Emergent Product Development Gaithersburg Inc., priority 2011, published 2019)

How the values were obtained:
A. baumannii A401 [1] = test: Preliminary MBC without and with sub-inhibitory polymyxin B (Example 4); format: cell-based, Acinetobacter baumannii; conditions: for MBC: 2nd experiment
A. baumannii A387 [2] = test: MIC without and with sub-inhibitory polymyxin B (Example 4); format: cell-based, Acinetobacter baumannii; conditions: A. baumannii A387; for MIC: 2nd experiment
A. baumannii A401 [3] = test: as above; format: cell-based, Acinetobacter baumannii; conditions: A baumannii A 401; for MIC: 2nd experiment
A. baumannii A473 [4] = test: as above; format: cell-based, Acinetobacter baumannii; conditions: A. baumannii A473; for MIC: 2nd experiment
A. baumannii A390 [5] = test: as above; format: cell-based, Acinetobacter baumannii; conditions: A. baumannii A390; for MIC: 2nd experiment
A. baumannii J2 [6] = test: Preliminary MBC without and with sub-inhibitory polymyxin B (Example 4); format: cell-based, Acinetobacter baumannii; conditions: A. baumannii J2, preliminary MBC; for MBC: 2nd experiment
A. baumannii NCTC 13301 [7] = test: MIC without and with sub-inhibitory polymyxin B (Example 4); format: cell-based, Acinetobacter baumannii; conditions: A. baumannii NCTC 13301; +[…] PB; 2nd experiment
A. baumannii A387 [8] = test: Preliminary MBC without and with sub-inhibitory polymyxin B (Example 4); format: cell-based, Acinetobacter baumannii; conditions: for MBC: 2nd experiment
A. baumannii A472 [9] = test: as above; format: cell-based, Acinetobacter baumannii; conditions: A. baumannii A472, preliminary MBC; for MBC: 2nd experiment
A. baumannii J2 [10] = test: MIC without and with sub-inhibitory polymyxin B (Example 4); format: cell-based, Acinetobacter baumannii; conditions: A. baumannii J2
A. baumannii A472 [11] = test: as above; format: cell-based, Acinetobacter baumannii; conditions: A. baumannii A472; for MIC: 2nd experiment
A. baumannii A329 = test: Preliminary MBC without and with sub-inhibitory polymyxin B (Example 4); format: cell-based, Acinetobacter baumannii; conditions: for MBC: 2nd experiment
A. baumannii NCTC 13301 [12] = test: MIC without and with sub-inhibitory polymyxin B (Example 4); format: cell-based, Acinetobacter baumannii; conditions: A. baumannii NCTC 13301; +[…] polymyxin B; 1st experiment
A. baumannii ATCC 19606 = test: as above; format: cell-based, Acinetobacter baumannii; conditions: A. baumannii ATCC 19606; for MIC: 2nd experiment
[13] = system: Acinetobacter sp. (H064200250); test: as above; format: cell-based; conditions: for MIC: Acinetobacter spp. H064200250 (OXA51), 2nd experiment
[14] = system: strains of A. baumannii and one strain of Acinetobacter sp.; test: MIC with sub-inhibitory concentrations (0.25x MIC) of polymyxin B, panel of Acinetobacter strains (Example 4); format: cell-based
A. baumannii A489 = test: MIC without and with sub-inhibitory polymyxin B (Example 4); format: cell-based, Acinetobacter baumannii; conditions: A. baumannii A489; for MIC: 2nd experiment
A. baumannii A14 [15] = test: as above; format: cell-based, Acinetobacter baumannii; conditions: A. baumannii A14, 2nd experiment
A. baumannii A14 [16] = test: as above; format: cell-based, Acinetobacter baumannii; conditions: 1st experiment
A. baumannii A390 [17] = test: Preliminary MBC without and with sub-inhibitory polymyxin B (Example 4); format: cell-based, Acinetobacter baumannii; conditions: for MBC: 2nd experiment
Method in brief: (§1)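 After plating, cultures are held at 37° C for 18-20 hours; the endpoint is then scored by comparing colony growth against the positive control, with MBC defined as the lowest concentration showing roughly 90% reduction.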

A. baumannii A473 [18] = test: as above; format: cell-based, Acinetobacter baumannii; conditions: for MBC: 2nd experiment
Method in brief: as §1

A. baumannii A14 [19] = test: as above; format: cell-based, Acinetobacter baumannii; conditions: 2nd experiment
Method in brief: as §1

A. baumannii NCTC 13301 [20] = test: as above; format: cell-based, Acinetobacter baumannii; conditions: A. baumannii NCTC 13301, preliminary MBC; for MBC: 2nd experiment
Method in brief: as §1

[21] = +0.06 μg/ml polymyxin B, 1st experiment
[22] = without polymyxin B, 1st experiment
[23] = +[…] polymyxin B, 1st experiment

Imipenem/cilastatin was tested, and the MBC (A. baumannii A401 [1]; A baumannii A 401, +0.06 μg/ml PB) was 4 µg/mL, the “MBC +0.06 μg/ml PB” value (A. baumannii A401 [1]; A baumannii A 401, +0.06 μg/ml polymyxin B, 1st experiment) was 8 µg/mL and the MBC (A. baumannii A401 [1]; A baumannii A 401, without PB) was 32 µg/mL. The “MBC without PB” value (A. baumannii A401 [1]; A baumannii A 401, without polymyxin B, 1st experiment) was 32 µg/mL, the MIC (A. baumannii A387 [2]; +0.06 μg/ml PB) was 8 µg/mL and the “MIC +0.06 μg/ml PB” value (A. baumannii A387 [2]; [21]) was 8 µg/mL. The MIC (A. baumannii A387 [2]; without PB) was 16 µg/mL, the “MIC without PB” value (A. baumannii A387 [2]; [22]) was 16 µg/mL and the MIC (A. baumannii A401 [3]; +0.06 μg/ml PB) was 4 µg/mL. The “MIC +0.06 μg/ml PB” value (A. baumannii A401 [3]; [21]) was 8 µg/mL, the MIC (A. baumannii A401 [3]; without PB) was 32 µg/mL and the “MIC without PB” value (A. baumannii A401 [3]; [22]) was 32 µg/mL. For the same substance, the MIC (A. baumannii A473 [4]; +0.06 μg/ml PB) was 4 µg/mL, the MIC (A. baumannii A473 [4]; without PB) was 32 µg/mL and the “MIC without PB” value (A. baumannii A473 [4]; [22]) was 32 µg/mL. The MIC (A. baumannii A390 [5]; +0.06 μg/ml PB) was 4 µg/mL, the MIC (A. baumannii A390 [5]; without PB) was 16 µg/mL and the “MIC without PB” value (A. baumannii A390 [5]; [22]) was 16 µg/mL. For the same substance, the MBC (A. baumannii J2 [6]; +[…] PB) was at most 0.125 µg/mL, the “MBC +[…] PB” value (A. baumannii J2 [6]; [23]) was at most 0.125 µg/mL and the MBC (A. baumannii J2 [6]; without PB) was 8 µg/mL. For the same substance, the “MBC without PB” value (A. baumannii J2 [6]; [22]) was 4 µg/mL, the MIC (A. baumannii NCTC 13301 [7]) was 1 µg/mL and the MBC (A. baumannii A387 [8]; A. baumannii A387, +0.06 μg/ml PB) was 8 µg/mL. For the same substance, the “MBC +0.06 μg/ml PB” value (A. baumannii A387 [8]; A. baumannii A387, +0.06 μg/ml polymyxin B, 1st experiment) was 8 µg/mL, the MBC (A. baumannii A387 [8]; A. baumannii A387, without PB) was 16 µg/mL and the “MBC without PB” value (A. baumannii A387 [8]; A. baumannii A387, without polymyxin B, 1st experiment) was 16 µg/mL. The MBC (A. baumannii A472 [9]; +[…] PB) was 0.25 µg/mL, the “MBC +[…] PB” value (A. baumannii A472 [9]; [23]) was 0.25 µg/mL and the MBC (A. baumannii A472 [9]; without PB) was 8 µg/mL. For the same substance, the “MBC without PB” value (A. baumannii A472 [9]; [22]) was 16 µg/mL, the MIC (A. baumannii J2 [10]; +[…] PB, 2nd experiment) was at most 0.125 µg/mL and the “MIC +[…] PB” value (A. baumannii J2 [10]; [23]) was at most 0.125 µg/mL. For the same substance, the MIC (A. baumannii J2 [10]; without PB, 2nd experiment) was 8 µg/mL, the “MIC read with alamar blue” value (A. baumannii J2 [10]; without PB, value in parentheses, 2nd experiment) was 4 µg/mL and the “MIC without PB” value (A. baumannii J2 [10]; [22]) was 4 µg/mL. For the same substance, the MIC (A. baumannii A472 [11]; +[…] PB) was 0.25 µg/mL, the “MIC +[…] PB” value (A. baumannii A472 [11]; [23]) was 0.25 µg/mL and the MIC (A. baumannii A472 [11]; without PB) was 8 µg/mL. The “MIC without PB” value (A. baumannii A472 [11]; [22]) was 16 µg/mL, the MBC (A. baumannii A329; A. baumannii A329, +0.06 μg/ml PB) was 128 µg/mL and the MBC (A. baumannii A329; A. baumannii A329, without PB) was over 128 µg/mL. The “MBC without PB” value (A. baumannii A329; A. baumannii A329, without polymyxin B, 1st experiment) was 128 µg/mL, the “MIC +[…] PB” value (A. baumannii NCTC 13301 [12]) was 16 µg/mL and the MIC (A. baumannii ATCC 19606; +0.06 μg/ml PB) was 1 µg/mL. For the same substance, the “MIC +0.06 μg/ml PB” value (A. baumannii ATCC 19606; [21]) was 1 µg/mL, the MIC (A. baumannii ATCC 19606; without PB) was 1 µg/mL and the “MIC” value (A. baumannii ATCC 19606; without PB, value in parentheses marked *, mark not explained) was 4 µg/mL. For the same substance, the “MIC without PB” value (A. baumannii ATCC 19606; [22]) was 2 µg/mL, the MIC ([13]; +[…] PB) was 0.5 µg/mL and the MIC ([13]; without PB) was 8 µg/mL. For the same substance, the “MIC +[…] PB” value ([13]; Acinetobacter spp. H064200250, +[…] polymyxin B, 1st experiment) was 0.5 µg/mL, the “MIC without PB” value ([13]; Acinetobacter spp. H064200250, without polymyxin B, 1st experiment) was 16 µg/mL and the “MIC range with PB (0.25x MIC) Oct. 1, 2008 n = 8” value ([14]; 1st experiment, […] polymyxin B, ATCC 19606, A329, A390 and A473 not taken) was under 0.125 to 16 µg/mL. The “MIC range with PB (0.25x MIC) Oct. 14, 2008 n = 11” value ([14]; 2nd experiment, 0.06 μg/ml polymyxin B, all strains except the ATCC strain) was at most 0.125 to 128 µg/mL, the MIC (A. baumannii A489; +[…] PB) was 0.25 µg/mL and the “MIC +[…] PB” value (A. baumannii A489; [23]) was 2 µg/mL. For the same substance, the MIC (A. baumannii A489; without PB) was 64 µg/mL, the MIC (A. baumannii A14 [15]; +0.06 μg/ml PB) was 1 µg/mL and the MIC (A. baumannii A14 [15]; without PB) was 1 µg/mL. The “MIC +0.06 μg/ml PB” value (A. baumannii A14 [16]; +0.06 μg/ml polymyxin B) was 1 µg/mL, the “MIC without PB” value (A. baumannii A14 [16]; without polymyxin B) was 1 µg/mL and the MBC (A. baumannii A390 [17]; A. baumannii A390, +0.06 μg/ml PB) was 4 µg/mL. The MBC (A. baumannii A390 [17]; A. baumannii A390, without PB) was 16 µg/mL, the “MBC without PB” value (A. baumannii A390 [17]; A. baumannii A390, without polymyxin B, 1st experiment) was 16 µg/mL and the MBC (A. baumannii A473 [18]; A. baumannii A473, +0.06 μg/ml PB) was 4 µg/mL. The MBC (A. baumannii A473 [18]; A. baumannii A473, without PB) was 32 µg/mL, the “MBC without PB” value (A. baumannii A473 [18]; A. baumannii A473, without polymyxin B, 1st experiment) was 32 µg/mL and the MBC (A. baumannii A14 [19]; A. baumannii A14, +0.06 μg/ml PB) was 0.5 µg/mL. The MBC (A. baumannii A14 [19]; A. baumannii A14, without PB) was 1 µg/mL, the MBC (A. baumannii NCTC 13301 [20]; +[…] PB) was 0.5 µg/mL and the “MBC +[…] PB” value (A. baumannii NCTC 13301 [20]; [23]) was 16 µg/mL. The MBC (A. baumannii NCTC 13301 [20]; without PB) was 128 µg/mL and the “MBC without PB” value (A. baumannii NCTC 13301 [20]; [22]) was 128 µg/mL.
